Measurements: US12655120B2, “GPR52 modulator compounds” (NXERA PHARMA UK LIMITED, priority 2020, dated 2026)

Target: T1, human GPR52 (Homo sapiens, UniProt Q9Y2T5)
T1 construct: expressed in transfected cells; host or cells: HEKf suspension cells infected with BacMam virus
Assay: GPR52 Agonist Functional cAMP Assay
Format: cell-based
Conditions: for EC50: HEKf cells infected with human GPR52 BacMam, HTRF cAMP, 30 min at 37° C., read-out: pEC50 average (converted); for Emax: normalised to DMSO (0%) and maximal compound 7m (J. Med. Chem., 2014, 57, 5226) response (100%)
Method: HEKf suspension cells were infected for 24 h with 0.1% v/v human GPR52 expressing BacMam virus, a modified baculovirus designed for mammalian gene expression. Following BacMam infection, cells were pelleted by centrifugation (335 g, 5 min), resuspended in cell freezing medium (Sigma) and frozen at −150° C. until required. On experiment day, 25 nL GPR52 compound dilutions, prepared in DMSO, were stamped onto proxiplates (PerkinElmer) by a LabCyte ECHO acoustic dispenser. Frozen cells were thawed and resuspended in assay stimulation buffer (Cisbio) containing 0.5 mM 3-iso-butyl-1-methylxanthine (IBMX, Sigma) to achieve a density of 2000 cells per well. 10 μl cells were added to assay plates using a Multidrop Combi Reagent Dispenser (ThermoFisher) before centrifugation (335 g, 1 min). Cells were incubated with compounds at 37° C. for 30 min prior to addition of cAMP detection reagents (HiRange cAMP kit, Cisbio) which were prepared according to the manufacturer's instructions. Plates were shaken for 1 h at room temperature before reading on a PHERAstar FS plate reader (BMG Labtech) using standard HTRF settings. HTRF ratios were obtained by dividing the acceptor emissions (665 nm) by the donor emissions (620 nm) and multiplying by 10,000.

T1 sequence (Q9Y2T5 whole entry): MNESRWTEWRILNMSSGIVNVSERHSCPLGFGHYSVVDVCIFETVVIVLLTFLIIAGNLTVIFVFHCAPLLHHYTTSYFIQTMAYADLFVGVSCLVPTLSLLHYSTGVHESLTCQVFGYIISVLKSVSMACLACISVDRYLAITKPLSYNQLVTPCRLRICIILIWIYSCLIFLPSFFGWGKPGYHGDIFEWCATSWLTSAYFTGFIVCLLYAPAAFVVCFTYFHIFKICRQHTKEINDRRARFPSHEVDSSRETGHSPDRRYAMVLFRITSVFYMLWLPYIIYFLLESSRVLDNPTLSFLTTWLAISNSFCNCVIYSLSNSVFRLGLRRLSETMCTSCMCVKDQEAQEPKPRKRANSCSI

Row | EC50 [nM] | Emax [%] | Compound
1 | 31.6 | 93 | Cc1nn(-c2ccnc(Cc3cc(F)cc(C(F)(F)F)c3)c2)cc1C(=O)N1CCCC1 [Example 16, (1-(2-(3-fluoro-5-(trifluoromethyl)benzyl)pyridin-4-yl)-3-methyl-1H-pyrazol-4-yl)(pyrrolidin-1-yl)methanone]
2 | 79.4 | 96 | Cc1nn(-c2cc(Cc3cc(F)cc(C(F)F)c3)ccn2)cc1C(N)=O [Example 37, 1-(4-(3-(difluoromethyl)-5-fluorobenzyl)pyridin-2-yl)-3-methyl-1H-pyrazole-4-carboxamide]
3 | 25.1 | 87 | NC(=O)c1cn(-c2ccnc(Cc3cc(F)cc(C(F)(F)F)c3)c2)nc1C(F)F [Example 23, 3-(difluoromethyl)-1-(2-(3-fluoro-5-(trifluoromethyl)benzyl)pyridin-4-yl)-1H-pyrazole-4-carboxamide]
4 | 200 | 75 | CN(C)C(=O)c1ccn(-c2cc(Cc3cc(F)cc(C(F)(F)F)c3)ccn2)n1 [Example 32, 1-(4-(3-fluoro-5-(trifluoromethyl)benzyl)pyridin-2-yl)-N,N-dimethyl-1H-pyrazole-3-carboxamide]
5 | 100 | 87 | N#Cc1nn(-c2ccnc(Cc3cc(F)cc(C(F)(F)F)c3)c2)cc1C(N)=O [Example 26, 3-cyano-1-(2-(3-fluoro-5-(trifluoromethyl)benzyl)pyridin-4-yl)-1H-pyrazole-4-carboxamide]
6 | 39.8 | 96 | COCCNC(=O)c1cn(-c2ccnc(Cc3cc(F)cc(C(F)(F)F)c3)c2)nc1C [Example 21, 1-(2-(3-fluoro-5-(trifluoromethyl)benzyl)pyridin-4-yl)-N-(2-methoxyethyl)-3-methyl-1H-pyrazole-4-carboxamide]
7 | – | 98 | Cc1nn(-c2ccnc(Cc3cc(F)cc(C(F)(F)F)c3)c2)c(CO)c1C(N)=O [Example 41, 1-(2-(3-fluoro-5-(trifluoromethyl)benzyl)pyridin-4-yl)-5-(hydroxymethyl)-3-methyl-1H-pyrazole-4-carboxamide]
8 | 316 | 86 | CNC(=O)c1cnn(-c2cc(Cc3cc(F)cc(C(F)(F)F)c3)ccn2)c1 [Example 3, 1-(4-(3-fluoro-5-(trifluoromethyl)benzyl)pyridin-2-yl)-N-methyl-1H-pyrazole-4-carboxamide]
9 | 501 | 83 | NC(=O)c1nn(-c2cccc(Cc3cc(F)cc(C(F)(F)F)c3)n2)cc1CO [Example 51, 1-(6-(3-fluoro-5-(trifluoromethyl)benzyl)pyridin-2-yl)-4-(hydroxymethyl)-1H-pyrazole-3-carboxamide]
10 | 25.1 | 91 | NC(=O)c1cn(-c2ccnc(Cc3cc(F)cc(C(F)(F)F)c3)c2)nc1C(F)(F)F [Example 24, 1-(2-(3-fluoro-5-(trifluoromethyl)benzyl)pyridin-4-yl)-3-(trifluoromethyl)-1H-pyrazole-4-carboxamide]
11 | – | 101 | Cc1nn(-c2cc(Cc3cc(F)cc(C(F)F)c3)ccn2)c(CO)c1C(N)=O [Example 44, 1-(4-(3-(difluoromethyl)-5-fluorobenzyl)pyridin-2-yl)-5-(hydroxymethyl)-3-methyl-1H-pyrazole-4-carboxamide]
12 | 20 | 93 | NC(=O)c1ccn(-c2cc(Cc3cc(F)cc(C(F)F)c3)ccn2)n1 [Example 38, 1-(4-(3-(difluoromethyl)-5-fluorobenzyl)pyridin-2-yl)-1H-pyrazole-3-carboxamide]
13 | 79.4 | 92 | Cc1nn(-c2ccnc(Cc3cc(F)cc(C(F)(F)F)c3)c2)cc1C(=O)N(C)C [Example 18, 1-(2-(3-fluoro-5-(trifluoromethyl)benzyl)pyridin-4-yl)-N,N,3-trimethyl-1H-pyrazole-4-carboxamide]
14 | 79.4 | 92 | NC(=O)c1cc(CO)n(-c2cc(Cc3cc(F)cc(C(F)(F)F)c3)ccn2)n1 [Example 54, 1-(4-(3-fluoro-5-(trifluoromethyl)benzyl)pyridin-2-yl)-5-(hydroxymethyl)-1H-pyrazole-3-carboxamide]
15 | 1580 | 36 | CNC(=O)c1cn(-c2cccc(Cc3cc(F)cc(C(F)(F)F)c3)n2)nc1CO [Example 48, 1-(6-(3-fluoro-5-(trifluoromethyl)benzyl)pyridin-2-yl)-3-(hydroxymethyl)-N-methyl-1H-pyrazole-4-carboxamide]
16 | 50.1 | 88 | CNC(=O)c1ccn(-c2cc(Cc3cc(F)cc(C(F)F)c3)ccn2)n1 [Example 46, 1-(4-(3-(difluoromethyl)-5-fluorobenzyl)pyridin-2-yl)-N-methyl-1H-pyrazole-3-carboxamide]

Row | EC50 [nM] | Emax [%] | Compound
17 | 63.1 | 93 | NC(=O)c1nn(-c2cc(Cc3cc(F)cc(C(F)(F)F)c3)ccn2)cc1CO [Example 49, 1-(4-(3-fluoro-5-(trifluoromethyl)benzyl)pyridin-2-yl)-4-(hydroxymethyl)-1H-pyrazole-3-carboxamide]
18 | 10 | 93 | CNC(=O)c1cn(-c2ccnc(Cc3cc(F)cc(C(F)(F)F)c3)c2)nc1C [Example 17, 1-(2-(3-fluoro-5-(trifluoromethyl)benzyl)pyridin-4-yl)-N,3-dimethyl-1H-pyrazole-4-carboxamide]
19 | 631 | 77 | O=C(NC1COC1)c1ccn(-c2cc(Cc3cc(F)cc(C(F)(F)F)c3)ccn2)n1 [Example 34, 1-(4-(3-fluoro-5-(trifluoromethyl)benzyl)pyridin-2-yl)-N-(oxetan-3-yl)-1H-pyrazole-3-carboxamide]
20 | 15.8 | 94 | Cc1nn(-c2cc(Cc3cc(F)cc(C(F)(F)F)c3)ccn2)cc1C(N)=O [Example 5, 1-(4-(3-fluoro-5-(trifluoromethyl)benzyl)pyridin-2-yl)-3-methyl-1H-pyrazole-4-carboxamide]
21 | 20 | 96 | Cc1nn(-c2ccnc(Cc3cc(F)cc(C(F)(F)F)c3)c2)cc1C(N)=O [Example 8, 1-(2-(3-fluoro-5-(trifluoromethyl)benzyl)pyridin-4-yl)-3-methyl-1H-pyrazole-4-carboxamide]
22 | 15.8 | 96 | Cc1nn(-c2ccnc(Cc3cc(F)cc(C(F)(F)F)c3)c2)cc1C(=O)NCCO [Example 20, 1-(2-(3-fluoro-5-(trifluoromethyl)benzyl)pyridin-4-yl)-N-(2-hydroxyethyl)-3-methyl-1H-pyrazole-4-carboxamide]
23 | 126 | 83 | CNC(=O)c1ccn(-c2ccnc(Cc3cc(F)cc(C(F)(F)F)c3)c2)n1 [Example 55, 1-(2-(3-fluoro-5-(trifluoromethyl)benzyl)pyridin-4-yl)-N-methyl-1H-pyrazole-3-carboxamide]
24 | 501 | 90 | NC(=O)c1cnn(-c2ccnc(Cc3cc(F)cc(C(F)(F)F)c3)c2)c1 [Example 2, 1-(2-(3-fluoro-5-(trifluoromethyl)benzyl)pyridin-4-yl)-1H-pyrazole-4-carboxamide]
25 | – | 100 | Cc1nn(-c2ccnc(Cc3cc(F)cc(C(F)(F)F)c3)c2)c(CO)c1C(=O)NCCO [Example 42, 1-(2-(3-fluoro-5-(trifluoromethyl)benzyl)pyridin-4-yl)-N-(2-hydroxyethyl)-5-(hydroxymethyl)-3-methyl-1H-pyrazole-4-carboxamide]
26 | 50.1 | 95 | Cc1nn(-c2ccnc(Cc3cc(F)cc(C(F)(F)F)c3)c2)nc1C(N)=O [Example 12, 2-(2-(3-fluoro-5-(trifluoromethyl)benzyl)pyridin-4-yl)-5-methyl-2H-1,2,3-triazole-4-carboxamide]
27 | 100 | 84 | CNC(=O)c1cnn(-c2cc(Cc3cc(F)cc(C(F)(F)F)c3)ccn2)n1 [Example 56, 2-(4-(3-fluoro-5-(trifluoromethyl)benzyl)pyridin-2-yl)-N-methyl-2H-1,2,3-triazole-4-carboxamide]
28 | 126 | 87 | O=C(c1ccn(-c2cc(Cc3cc(F)cc(C(F)(F)F)c3)ccn2)n1)N1CCCC1 [Example 33, (1-(4-(3-fluoro-5-(trifluoromethyl)benzyl)pyridin-2-yl)-1H-pyrazol-3-yl)(pyrrolidin-1-yl)methanone]
29 | 126 | 90 | NC(=O)c1cnn(-c2cc(Cc3cc(F)cc(C(F)(F)F)c3)ccn2)c1 [Example 1, 1-(4-(3-fluoro-5-(trifluoromethyl)benzyl)pyridin-2-yl)-1H-pyrazole-4-carboxamide]
30 | – | 101 | CNC(=O)c1c(C)nn(-c2cc(Cc3cc(F)cc(C(F)(F)F)c3)ccn2)c1CO [Example 43, 1-(4-(3-fluoro-5-(trifluoromethyl)benzyl)pyridin-2-yl)-5-(hydroxymethyl)-N,3-dimethyl-1H-pyrazole-4-carboxamide]
31 | 15.8 | 99 | Cc1nn(-c2ccnc(Cc3cc(F)cc(C(F)(F)F)c3)c2)cc1C(=O)NC1COC1 [Example 19, 1-(2-(3-fluoro-5-(trifluoromethyl)benzyl)pyridin-4-yl)-3-methyl-N-(oxetan-3-yl)-1H-pyrazole-4-carboxamide]
